Assay results: paper PMC10064984, “Anti-cyclooxygenase, anti-glycation, and anti-skin aging effect of Dendrobium officinale flowers’ aqueous extract and its phytochemical validation in aging” (Frontiers in Immunology, 2023)
Values joined by “and” are separate entries in the source; they are usually repeats but may differ in a detail not shown here. Identical values can stand only once. Like-named read-outs stand apart in the source and are kept apart here.

Legend:
[1] = test system: CML expression in MGO-induced HDFs; test: Glycation cell assay: CML expression in MGO-induced HDFs (IF); format: cell-based, human; conditions: positive compound
Experimental: Based on previously reported methods ([25]), human primary dermal fibroblasts (HDFs) were induced by MGO to establish a cell model of high CML expression.
HDFs were cultured in high-glucose DMEM supplemented with 10% FBS containing 100 µg/ml of PS at 37°C in a humidified 5% CO2 incubator. Cell viability was assessed using the CCK-8 kit. HDFs were cultured in 12-well plates to approximately 70% confluence and then treated with 0.5 mmol/L of MGO for 48 h to induce glycation and the formation of CML. Subsequently, different concentrations of samples were added and co-cultured with MGO for an additional 48 h. Cells were then washed once with PBS and fixed in polyformaldehyde overnight at 4°C. Triton-X-100 solution (0.1%) was assigned to fixed cells for 5 min at room temperature to improve cell membrane permeability. After washing twice with PBS, cells were blocked in 1% BSA for 1 h, followed by incubation with the primary CML antibody (1:50) overnight at 4°C. […] Counterstaining was performed by adopting anti-fluorescence quenching and sealing liquid containing DAPI, followed by visualisation and fluorescence image capture using a microscope (Leica, Germany). ImageJ software was used to quantify CML expression from different images randomly selected in each group.

[2] = Fluorescent AGEs formation in a BSA-fructose/glucose system; format: biochemical; conditions: for IC50: read-out: BSA-glycation IC50
How it was run: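 BSA glycated in vitro with D-glucose and D-fructose while test samples, dissolved in DMSO:water (1:4), were present. Percent inhibition of fluorescent AGE formation calculated from fluorescence corrected for sample-only and BSA-free blanks; triplicate.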

[3] = test system: type I collagen in HDFs; test: Collagen type I immunofluorescence staining in HDFs; format: cell-based, human; conditions: for COL I staining: VC positive control, NT = 100%, replicates and AVE, listed as VC
Experimental: (§1) HDFs were cultured in DMEM with 10% (v/v) FBS and 1% PS at 37°C in a humidified 5% CO2 incubator. Cells were subcultured using pancreatin solution after reaching confluence. All experiments were performed between the third and eighth passages.
(§2) The synthesis of collagen types I and III was detected using IF ([26]) and ELISA ([27]). HDFs were digested and seeded in a 24-well culture plate on slides at a density of 50,000 cells/well in a complete medium. After reaching 80% confluency, cells were starved with the medium in the absence of serum for 16 h. Cells were then treated with positive controls or active samples (prepared in medium without serum) for an additional 48 h. For analysis and visualisation of types I and III collagens, the supernatants and remaining cell slides were both collected and analysed using ELISA kits and the IF staining method, respectively.
(§3) Collected supernatants were centrifuged at 10,000 rpm for 10 min and used for types I and III collagen ELISA, according to the manufacturer’s protocol. The remaining cell slides were washed once with PBS and fixed in polyformaldehyde overnight at 4°C. Subsequently, the slides were treated with 0.5% Triton-X100 for 5 min. After washing, cells were blocked with 1% BSA at room temperature for 1 h. Cells were then incubated with types I and type III collagen primary antibodies (1:100) for 2 h at room temperature. […] Finally, the nuclei were counter-stained with DAPI, and relevant fluorescent images were captured using a microscope. ImageJ software was used to quantify collagen expression from different images randomly selected in each group.

[4] = test system: secreted type III collagen of HDFs; test: Extracellular collagen type III ELISA on HDFs; format: cell-based, human; conditions: VC positive control, replicates and AVE, listed as VC
Experimental: as §1, §2
Collected supernatants were centrifuged at 10,000 rpm for 10 min and used for types I and III collagen ELISA, according to the manufacturer’s protocol. The remaining cell slides were washed once with PBS and fixed in polyformaldehyde overnight at 4°C. Subsequently, the slides were treated with 0.5% Triton-X100 for 5 min. After washing, cells were blocked with 1% BSA at room temperature for 1 h. […] ImageJ software was used to quantify collagen expression from different images randomly selected in each group.

[5] = test system: secreted type I collagen of HDFs; test: Extracellular collagen type I ELISA on HDFs; format: cell-based, human; conditions: for COL I (ELISA): VC positive control, replicates and AVE, listed as VC
Experimental: as §1, §2, §3

[6] = test system: type III collagen in HDFs; test: Collagen type III immunofluorescence staining in HDFs; format: cell-based, human; conditions: for COL III staining: VC positive control, NT = 100%, replicates and AVE, listed as VC
Experimental: as §1, §2, §3

Row | Compound | inhibition of glycation (CML) [1] | fluorescent AGEs IC50 [2] | inhibition of fluorescent AGEs formation (BSA-抗糖化), single replicate ([2]; 15.625 ug/ml) | IC50 ([2]; lower part of sheet (compound series)) | IC50 ([2]; mean ± SD, n = 3) | BSA-glycation IC50 ([2]; upper part of sheet (extract series)) | IC50 ([2]; upper part of sheet (extract series), positive control also given in μM) | collagen type I expression (IF) ([3]; VC 200 μg/ml, positive control) | COL I staining [3] | COL I staining ([3]; mean) | COL III (ELISA) [4] | COL III (ELISA) ([4]; mean) | COL I (ELISA) [5] | COL I (ELISA) ([5]; mean) | increase of secreted collagen type I levels ([5]; VC, 48 h, culture medium) | collagen type III expression (IF) ([6]; VC 200 μg/ml, positive control) | COL III staining [6] | COL III staining ([6]; mean)
1 | Cl.N=C(N)NN [AG, Aminoguanidine hydrochloride, reference compound] | 88.11% | 177.3 ± 11.6 µg/mL | -1.16% and 3.22% | 1620 ± 111 µM | 1600 µM | 178.47 ± 12.27 µg/mL | 1620 ± 111 µM | – | – | – | – | – | – | – | – | – | – | –
2 | O=C1O[C@H]([C@@H](O)CO)C(O)=C1O [vitamin C] | – | – | – | – | – | – | – | 190.20 % of control | 173.88% and 170.79% and 188.58% and 168.29% and 249.47% | 190.20% | 2.70 ng/mL and 2.97 ng/mL and 3.15 ng/mL | 2.94 ng/mL | 646.77 pg/mL and 611.41 pg/mL and 656.93 pg/mL | 638.37 pg/mL | 21.94% | 125.90 % of control | 118.22% and 137.59% and 116.52% and 131.28% | 125.90%
